Reference: ChEMBL document CHEMBL5705899 (Biochem J, 2014)
Calls of active or inactive are those of the source. The calls are words filed in the database; no cut-off is given here.

Assays:
[1] = molecular target: Eukaryotic elongation factor 2 kinase (Homo sapiens) (UniProt O00418); experiment: Inhibition of human EEF2K at 1 uM using RBER-GSK3 as substrate in presence of 33P-ATP by ProQinase assay
[2] = molecular target: MAP kinase-interacting serine/threonine-protein kinase 2 (Homo sapiens) (UniProt Q9HBH9); experiment: Inhibition of human MKNK2 at 1 uM using RB-S6P as substrate in presence of 33P-ATP by ProQinase assay
[3] = molecular target: Protein-tyrosine kinase 2-beta (Homo sapiens) (UniProt Q14289); experiment: Inhibition of human PYK2 at 1 uM using polyEY as substrate in presence of 33P-ATP by ProQinase assay
[4] = molecular target: Tyrosine-protein kinase HCK (Homo sapiens) (UniProt P08631); experiment: Inhibition of human HCK at 1 uM using polyEY as substrate in presence of 33P-ATP by ProQinase assay
Sequence of Tyrosine-protein kinase HCK (Homo sapiens) (P08631 2-526 limits assumed): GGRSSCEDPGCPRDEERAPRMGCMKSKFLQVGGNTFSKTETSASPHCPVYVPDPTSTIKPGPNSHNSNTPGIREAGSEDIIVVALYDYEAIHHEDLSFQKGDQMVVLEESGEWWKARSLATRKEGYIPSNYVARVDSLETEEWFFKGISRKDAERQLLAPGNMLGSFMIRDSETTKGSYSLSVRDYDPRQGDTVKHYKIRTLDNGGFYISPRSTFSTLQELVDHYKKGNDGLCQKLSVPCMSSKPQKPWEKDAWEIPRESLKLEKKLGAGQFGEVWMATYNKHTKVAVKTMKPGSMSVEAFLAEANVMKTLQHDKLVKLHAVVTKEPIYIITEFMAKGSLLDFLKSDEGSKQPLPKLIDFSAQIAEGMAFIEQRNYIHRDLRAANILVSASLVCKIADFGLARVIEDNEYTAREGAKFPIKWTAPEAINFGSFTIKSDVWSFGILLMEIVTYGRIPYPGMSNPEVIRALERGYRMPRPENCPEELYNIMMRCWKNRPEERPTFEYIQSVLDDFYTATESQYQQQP

[5] = molecular target: Ribosomal protein S6 kinase alpha-1 (Homo sapiens) (UniProt Q15418); experiment: Inhibition of human RPS6KA1 at 1 uM using RBER-CHKtide as substrate in presence of 33P-ATP by ProQinase assay
[6] = molecular target: Dual specificity protein kinase CLK3 (Homo sapiens) (UniProt P49761); experiment: Inhibition of human CLK3 at 1 uM using RB-S6P as substrate in presence of 33P-ATP by ProQinase assay
[7] = molecular target: Maternal embryonic leucine zipper kinase (Homo sapiens) (UniProt Q14680); experiment: Inhibition of recombinant human N-terminal GST/C-terminal His6-tagged MELK (2 to 651 residues) expressed in Escherichia coli assessed as remaining activity at 1 uM using KKLNRTLSFAEPG as substrate incubated for 30 mins in presence of [gamma-33P]ATP by filter binding method relative to control
[8] = molecular target: Serine/threonine-protein kinase PLK4 (Homo sapiens) (UniProt O00444); experiment: Inhibition of human SAK at 1 uM using p38-alpha KA as substrate in presence of 33P-ATP by ProQinase assay
Sequence of Serine/threonine-protein kinase PLK4 (Homo sapiens) (O00444 whole entry): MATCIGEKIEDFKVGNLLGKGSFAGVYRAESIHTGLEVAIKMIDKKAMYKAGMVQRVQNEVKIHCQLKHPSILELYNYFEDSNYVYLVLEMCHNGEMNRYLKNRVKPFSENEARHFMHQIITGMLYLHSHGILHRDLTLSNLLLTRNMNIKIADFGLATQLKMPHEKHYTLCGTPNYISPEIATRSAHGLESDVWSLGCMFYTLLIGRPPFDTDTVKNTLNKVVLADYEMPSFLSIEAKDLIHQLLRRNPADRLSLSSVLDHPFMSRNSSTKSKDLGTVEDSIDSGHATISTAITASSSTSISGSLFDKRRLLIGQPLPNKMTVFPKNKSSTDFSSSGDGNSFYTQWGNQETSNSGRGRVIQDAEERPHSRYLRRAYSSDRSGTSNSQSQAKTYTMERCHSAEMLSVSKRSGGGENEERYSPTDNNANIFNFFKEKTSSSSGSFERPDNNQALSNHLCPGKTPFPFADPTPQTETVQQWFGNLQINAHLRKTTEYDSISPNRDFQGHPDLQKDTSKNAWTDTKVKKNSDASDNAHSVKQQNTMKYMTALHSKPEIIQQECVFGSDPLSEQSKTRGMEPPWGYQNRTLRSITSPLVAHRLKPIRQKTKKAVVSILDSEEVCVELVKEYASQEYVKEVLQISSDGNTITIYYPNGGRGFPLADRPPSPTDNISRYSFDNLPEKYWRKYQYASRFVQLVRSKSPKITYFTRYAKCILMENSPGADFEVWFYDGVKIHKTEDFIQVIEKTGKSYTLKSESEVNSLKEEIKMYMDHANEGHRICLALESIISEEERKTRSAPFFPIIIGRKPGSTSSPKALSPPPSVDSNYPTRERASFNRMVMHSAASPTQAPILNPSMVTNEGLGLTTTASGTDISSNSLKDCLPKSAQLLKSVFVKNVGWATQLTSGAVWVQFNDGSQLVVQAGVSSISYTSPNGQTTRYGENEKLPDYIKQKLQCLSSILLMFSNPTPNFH

[9] = molecular target: Dual specificity mitogen-activated protein kinase kinase 1 (Homo sapiens) (UniProt Q02750); experiment: Inhibition of human MEK1 at 1 uM using ERK2-KR as substrate in presence of 33P-ATP by ProQinase assay
[10] = molecular target: Homeodomain-interacting protein kinase 4 (Homo sapiens) (UniProt Q8NE63); experiment: Inhibition of human HIPK4 at 1 uM using RBER-IRStide as substrate in presence of 33P-ATP by ProQinase assay
[11] = molecular target: Activin receptor type-2B (Homo sapiens) (UniProt Q13705); experiment: Inhibition of human ACVR2B at 1 uM using RB-CTF as substrate in presence of 33P-ATP by ProQinase assay
Sequence of Activin receptor type-2B (Homo sapiens) (Q13705 whole entry): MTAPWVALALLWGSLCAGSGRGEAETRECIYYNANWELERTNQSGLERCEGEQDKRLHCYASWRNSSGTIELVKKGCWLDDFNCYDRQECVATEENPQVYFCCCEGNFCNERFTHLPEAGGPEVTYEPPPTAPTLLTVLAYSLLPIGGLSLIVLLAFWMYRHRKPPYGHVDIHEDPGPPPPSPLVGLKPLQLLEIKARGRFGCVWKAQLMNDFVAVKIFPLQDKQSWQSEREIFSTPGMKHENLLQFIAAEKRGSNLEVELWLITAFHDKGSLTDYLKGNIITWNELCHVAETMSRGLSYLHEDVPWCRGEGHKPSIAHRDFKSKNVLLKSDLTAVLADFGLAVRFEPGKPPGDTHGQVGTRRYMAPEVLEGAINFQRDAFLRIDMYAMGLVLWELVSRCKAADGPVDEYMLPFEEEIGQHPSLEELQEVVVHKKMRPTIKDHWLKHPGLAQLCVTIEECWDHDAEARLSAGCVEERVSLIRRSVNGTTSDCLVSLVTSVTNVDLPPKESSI

[12] = molecular target: Myotonin-protein kinase (Homo sapiens) (UniProt Q09013); experiment: Inhibition of human DMPK at 1 uM using RBER-CHKtide as substrate in presence of 33P-ATP by ProQinase assay
[13] = molecular target: Tyrosine-protein kinase FRK (Homo sapiens) (UniProt P42685); experiment: Inhibition of human FRK at 1 uM using PolyEY as substrate in presence of 33P-ATP by ProQinase assay
Sequence of Tyrosine-protein kinase FRK (Homo sapiens) (P42685 whole entry): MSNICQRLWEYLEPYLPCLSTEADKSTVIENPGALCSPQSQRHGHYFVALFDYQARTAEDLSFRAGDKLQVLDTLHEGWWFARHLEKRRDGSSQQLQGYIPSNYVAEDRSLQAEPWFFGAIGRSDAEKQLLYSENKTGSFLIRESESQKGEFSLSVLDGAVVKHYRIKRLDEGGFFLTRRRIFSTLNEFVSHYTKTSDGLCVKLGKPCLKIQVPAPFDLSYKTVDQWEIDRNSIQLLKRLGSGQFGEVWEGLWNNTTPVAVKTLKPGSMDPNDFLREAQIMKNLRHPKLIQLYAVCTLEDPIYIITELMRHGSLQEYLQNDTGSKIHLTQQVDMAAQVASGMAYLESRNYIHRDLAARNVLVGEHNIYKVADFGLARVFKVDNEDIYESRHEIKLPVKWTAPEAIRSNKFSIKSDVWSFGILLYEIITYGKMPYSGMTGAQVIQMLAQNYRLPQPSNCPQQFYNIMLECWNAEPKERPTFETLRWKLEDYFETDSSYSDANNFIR

[14] = molecular target: Leucine-rich repeat serine/threonine-protein kinase 2 (Homo sapiens) (UniProt Q5S007); experiment: Inhibition of human LRRK2 at 1 uM using RBER-GSK3 as substrate in presence of 33P-ATP by ProQinase assay
[15] = molecular target: Dual specificity tyrosine-phosphorylation-regulated kinase 3 (Homo sapiens) (UniProt O43781); experiment: Inhibition of recombinant human N-terminal GST-tagged DYRK3 (1 to 588 residues) expressed in Escherichia coli assessed as remaining activity at 1 uM using KKISGRLSPIMTEQ as substrate incubated for 30 mins in presence of [gamma-33P]ATP by filter binding method relative to control
[16] = molecular target: Tyrosine-protein kinase CSK (Homo sapiens) (UniProt P41240); experiment: Inhibition of human CSK at 1 uM using polyEY as substrate in presence of 33P-ATP by ProQinase assay
Sequence of Tyrosine-protein kinase CSK (Homo sapiens) (P41240 2-450 limits assumed): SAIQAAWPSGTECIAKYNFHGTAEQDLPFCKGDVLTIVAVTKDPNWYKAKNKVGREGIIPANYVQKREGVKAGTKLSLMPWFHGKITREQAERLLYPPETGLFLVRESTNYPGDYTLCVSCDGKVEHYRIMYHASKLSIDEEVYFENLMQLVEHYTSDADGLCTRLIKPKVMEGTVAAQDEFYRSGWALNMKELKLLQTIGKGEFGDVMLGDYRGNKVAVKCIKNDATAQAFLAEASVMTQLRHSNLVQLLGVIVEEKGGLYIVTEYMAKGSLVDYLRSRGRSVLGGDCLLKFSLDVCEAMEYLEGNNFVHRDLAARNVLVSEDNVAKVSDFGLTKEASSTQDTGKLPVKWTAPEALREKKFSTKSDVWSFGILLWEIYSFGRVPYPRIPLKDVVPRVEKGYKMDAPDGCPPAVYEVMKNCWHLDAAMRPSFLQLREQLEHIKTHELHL

[17] = molecular target: Casein kinase I isoform gamma-2 (Homo sapiens) (UniProt P78368); experiment: Inhibition of human CK1gamma2 at 1 uM using casein as substrate in presence of 33P-ATP by ProQinase assay
Sequence of Casein kinase I isoform gamma-2 (Homo sapiens) (P78368 whole entry, looked up, the tested form may be a part, canonical isoform): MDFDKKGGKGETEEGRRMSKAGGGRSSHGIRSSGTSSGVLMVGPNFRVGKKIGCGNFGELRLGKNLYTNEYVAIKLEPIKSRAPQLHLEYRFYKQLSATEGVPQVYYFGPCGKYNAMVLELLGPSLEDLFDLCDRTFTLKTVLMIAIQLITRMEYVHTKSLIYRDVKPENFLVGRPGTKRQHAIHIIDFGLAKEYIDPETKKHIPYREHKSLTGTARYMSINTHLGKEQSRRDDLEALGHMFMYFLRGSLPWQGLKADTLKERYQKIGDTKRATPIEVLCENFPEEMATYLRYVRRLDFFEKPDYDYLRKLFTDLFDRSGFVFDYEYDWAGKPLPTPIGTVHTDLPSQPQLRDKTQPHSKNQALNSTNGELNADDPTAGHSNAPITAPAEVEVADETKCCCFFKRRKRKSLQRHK

[18] = molecular target: Serine/threonine-protein kinase Nek6 (Homo sapiens) (UniProt Q9HC98); experiment: Inhibition of recombinant human His6-tagged NEK6 (8 to 313 residues) expressed in baculovirus infected Sf21 cells assessed as remaining activity at 1 uM using FLAKSFGSPNRAYKK as substrate incubated for 30 mins in presence of [gamma-33P]ATP by filter binding method relative to control
[19] = molecular target: Phosphatidylinositol 4-phosphate 5-kinase type-1 alpha (Homo sapiens, UniProt Q99755); experiment: Inhibition of human PIP5K1A using PI/PS as substrate by ADP-Glo assay
[20] = molecular target: Angiopoietin-1 receptor (Homo sapiens) (UniProt Q02763); experiment: Inhibition of human TIE2 at 1 uM using polyEY as substrate in presence of 33P-ATP by ProQinase assay
[21] = molecular target: Serine/threonine-protein kinase pim-3 (Homo sapiens) (UniProt Q86V86); experiment: Inhibition of recombinant human N-terminal His6-tagged PIM3 (2 to 326 residues) expressed in baculovirus infected Sf21 cells assessed as remaining activity at 1 uM using RSRHSSYPAGT as substrate incubated for 30 mins in presence of [gamma-33P]ATP by filter binding method relative to control
[22] = molecular target: Protein kinase C epsilon type (Homo sapiens) (UniProt Q02156); experiment: Inhibition of human PKCepsilon at 1 uM using 3xChocktide-PKC as substrate in presence of 33P-ATP by ProQinase assay
[23] = molecular target: SRSF protein kinase 1 (Homo sapiens) (UniProt Q96SB4); experiment: Inhibition of recombinant human N-terminal GST-tagged SRPK1 (2 to 654 residues) expressed in Escherichia coli assessed as remaining activity at 1 uM using RSRSRSRSRSRSRSR as substrate incubated for 30 mins in presence of [gamma-33P]ATP by filter binding method relative to control
Sequence of SRSF protein kinase 1 (Homo sapiens) (Q96SB4 whole entry, the tested form may be a part): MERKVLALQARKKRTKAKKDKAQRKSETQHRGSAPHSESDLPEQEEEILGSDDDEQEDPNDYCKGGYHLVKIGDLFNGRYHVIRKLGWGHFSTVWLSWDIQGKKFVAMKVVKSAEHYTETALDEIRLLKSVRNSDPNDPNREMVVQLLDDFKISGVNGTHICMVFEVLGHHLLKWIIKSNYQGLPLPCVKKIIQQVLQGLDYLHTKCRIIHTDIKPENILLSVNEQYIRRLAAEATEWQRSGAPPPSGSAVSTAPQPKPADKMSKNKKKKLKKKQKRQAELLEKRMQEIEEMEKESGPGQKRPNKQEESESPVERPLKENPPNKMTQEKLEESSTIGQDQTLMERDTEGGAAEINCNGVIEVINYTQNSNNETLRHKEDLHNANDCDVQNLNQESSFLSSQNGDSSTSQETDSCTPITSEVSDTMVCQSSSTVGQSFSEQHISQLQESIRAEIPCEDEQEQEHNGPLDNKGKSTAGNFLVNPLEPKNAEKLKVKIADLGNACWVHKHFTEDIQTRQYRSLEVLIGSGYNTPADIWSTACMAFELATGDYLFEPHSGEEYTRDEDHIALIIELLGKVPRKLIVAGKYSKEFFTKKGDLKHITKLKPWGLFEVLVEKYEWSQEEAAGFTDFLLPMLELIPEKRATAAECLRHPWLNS

[24] = tested on: Serine/threonine-protein kinase Sgk1 (Homo sapiens), O00141 [S422D]; details: Sf21, dose 1.0 µM, time 30.0 min
[25] = molecular target: cAMP-dependent protein kinase catalytic subunit alpha (Homo sapiens) (UniProt P17612); experiment: Inhibition of human PKACalpha at 1 uM using bio-4xCHKT as substrate in presence of 33P-ATP by ProQinase assay
[26] = molecular target: Dual specificity protein kinase CLK2 (Homo sapiens) (UniProt P49760); experiment: Inhibition of recombinant human N-terminal GST-tagged CLK2 (138 to 499 residues) expressed in baculovirus infected Sf21 cells assessed as remaining activity at 1 uM using RNRYRDVSPFDHSR as substrate incubated for 30 mins in presence of [gamma-33P]ATP by filter binding method relative to control
Sequence of Dual specificity protein kinase CLK2 (Homo sapiens) (P49760 whole entry, looked up, the tested form may be a part): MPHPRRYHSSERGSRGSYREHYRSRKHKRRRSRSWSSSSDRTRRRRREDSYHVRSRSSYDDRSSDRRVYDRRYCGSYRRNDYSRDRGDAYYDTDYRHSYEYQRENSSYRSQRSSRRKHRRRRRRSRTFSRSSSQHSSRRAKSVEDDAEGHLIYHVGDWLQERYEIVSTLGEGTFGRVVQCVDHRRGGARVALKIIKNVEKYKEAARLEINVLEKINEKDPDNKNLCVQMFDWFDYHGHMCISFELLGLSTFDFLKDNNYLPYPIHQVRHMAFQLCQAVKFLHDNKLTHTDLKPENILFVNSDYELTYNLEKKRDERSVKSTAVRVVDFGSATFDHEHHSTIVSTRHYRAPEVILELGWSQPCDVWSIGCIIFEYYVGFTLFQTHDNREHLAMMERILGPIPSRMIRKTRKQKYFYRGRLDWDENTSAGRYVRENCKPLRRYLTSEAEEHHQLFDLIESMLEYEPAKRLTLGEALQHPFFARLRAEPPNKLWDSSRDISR

SMILES: CC(C)(O)CNc1ncc(-c2ccnc(Nc3ccnc(Cl)c3)n2)c(CC2CC2)n1
- inhibition [1]: inactive
- inhibition [2]: inactive
- inhibition [3]: inactive
- inhibition [4]: inactive
- inhibition [5]: inactive
- inhibition [6]: inactive
- Activity [7]: 108%
- inhibition [8]: inactive
- inhibition [9]: inactive
- inhibition [10]: inactive
- inhibition [11]: inactive
- inhibition [12]: inactive
- inhibition [13]: inactive
- inhibition [14]: inactive
- Activity [15]: 112%
- inhibition [16]: inactive
- inhibition [17]: inactive
- Activity [18]: 98%
- IC50 [19]: 4.93 µM
- inhibition [20]: inactive
- Activity [21]: 114%
- inhibition [22]: inactive
- Activity [23]: 111%
- Activity [24]: 108%
- inhibition [25]: inactive
- Activity [26]: 82%
